Measurements reported in PMC7221111 (Drugs in R&D, 2020).
Values joined by “and” are separate entries in the source; they are usually repeats but may differ in a detail not shown here. Identical values can stand only once. Like-named read-outs stand apart in the source and are kept apart here.

Assays:
[1] = cited from earlier work
[2] = Population pharmacokinetic model of vancomycin in preterm neonates; conditions: 500 non-parametric bootstrap runs; typical individual 1.48 kg

- CL, bootstrap median (95% CI) [2]: 0.1 (0.09–0.11) L/h
- Vd, bootstrap median (95% CI) [2]: 0.86 (0.804–0.93) L
Compound: CN[C@H](CC(C)C)C(=O)N[C@H]1C(=O)N[C@@H](CC(N)=O)C(=O)N[C@H]2C(=O)N[C@H]3C(=O)N[C@H](C(=O)N[C@H](C(=O)O)c4cc(O)cc(O)c4-c4cc3ccc4O)[C@H](O)c3ccc(c(Cl)c3)Oc3cc2cc(c3O[C@@H]2O[C@H](CO)[C@@H](O)[C@H](O)[C@H]2O[C@H]2C[C@](C)(N)[C@H](O)[C@H](C)O2)Oc2ccc(cc2Cl)[C@H]1O [vancomycin]
- Clearance, range reported in a similar population of neonates [1]: 0.054 to 0.07 L/h
- Vd, range reported in a similar population of neonates [1]: 0.58 to 1.19 L
- Variation in Vd ([1]; neonatal populations): 32% and 29.4%
- Variation in clearance ([1]; neonates): 32%
- Variation in Vd ([1]; paediatric populations): 43% and 77%
